Bounds are passed on as bounds.

This experiment has as its target T1, MerTK (Homo sapiens, UniProt Q12866).
T1 construct: endogenous in cells; host or cells: Jurkat cells
T1 sequence (Q12866 21-999): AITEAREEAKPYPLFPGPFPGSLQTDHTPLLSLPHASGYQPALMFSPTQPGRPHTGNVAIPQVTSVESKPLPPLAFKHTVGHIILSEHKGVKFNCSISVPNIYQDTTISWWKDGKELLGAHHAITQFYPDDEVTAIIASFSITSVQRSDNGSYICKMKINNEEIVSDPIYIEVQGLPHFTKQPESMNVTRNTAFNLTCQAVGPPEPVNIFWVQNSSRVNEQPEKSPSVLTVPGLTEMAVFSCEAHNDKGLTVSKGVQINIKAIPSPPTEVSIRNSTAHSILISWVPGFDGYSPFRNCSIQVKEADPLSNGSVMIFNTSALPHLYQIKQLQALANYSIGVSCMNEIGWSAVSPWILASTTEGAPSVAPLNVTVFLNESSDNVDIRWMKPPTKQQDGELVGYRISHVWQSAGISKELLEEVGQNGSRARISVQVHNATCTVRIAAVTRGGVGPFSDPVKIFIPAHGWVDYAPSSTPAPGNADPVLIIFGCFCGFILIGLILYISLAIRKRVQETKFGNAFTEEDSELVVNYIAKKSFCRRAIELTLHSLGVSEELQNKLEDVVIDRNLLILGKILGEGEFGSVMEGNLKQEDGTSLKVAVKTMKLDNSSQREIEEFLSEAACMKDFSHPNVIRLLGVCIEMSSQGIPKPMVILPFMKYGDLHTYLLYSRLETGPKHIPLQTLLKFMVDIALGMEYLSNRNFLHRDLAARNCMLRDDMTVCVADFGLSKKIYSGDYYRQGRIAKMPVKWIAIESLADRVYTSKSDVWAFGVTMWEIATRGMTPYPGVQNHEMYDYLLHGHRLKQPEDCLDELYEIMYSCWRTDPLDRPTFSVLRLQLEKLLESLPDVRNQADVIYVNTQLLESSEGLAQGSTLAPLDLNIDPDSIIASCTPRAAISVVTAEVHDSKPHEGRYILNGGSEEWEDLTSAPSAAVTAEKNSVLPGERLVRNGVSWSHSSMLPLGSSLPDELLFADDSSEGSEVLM
The experiment in a line: MerTk degradation in Jurkat cells (Western blot). It is filed as cell-based. Particulars: Jurkat, 4 h, 0.001-1 μM, 4 hour-incubation at 37° C., read-out: Jurkat Max % MerTK Degradation. In short, it runs like this: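 Jurkat cells treated 4 h at 37 °C with compound at 0.001-1 μM final. RIPA lysates quantified by BCA, then MerTK probed by Western blot against actin loading control with IR-dye secondaries and Odyssey imaging.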
On the technique in general: Immunoblotting shows a protein as a band on a membrane.
In the case of `Cn1c(=O)n([C@H]2CCC(=O)NC2=O)c2ccc(CCCOCCCN3CCN(Cc4cccc(-c5cn([C@H]6CC[C@H](O)CC6)c6nc(NCCC(F)(F)F)ncc56)c4)CC3)cc21` [I-139, 3-[3-methyl-2-oxo-5-[3-(3-[4-[(3-[7-[trans-4-hydroxycyclohexyl]-2-[(3,3,3-trifluoropropyl)amino]pyrrolo[2,3-d]pyrimidin-5-yl]phenyl)methyl]piperazin-1-yl]propoxy)propy1]-1,3-benzodiazol-1-yl]piperidine-2,6-dione], the Dmax is more than 50%.
As to `Cn1c(=O)n([C@H]2CCC(=O)NC2=O)c2ccc(CCCOCCCN3CCN(Cc4cn([C@H]5CC[C@H](O)CC5)c5nc(NCCC(F)(F)F)ncc45)CC3)cc21` [I-140, 3-[3-methyl-2-oxo-5-(3-[3-[4-([7-[trans-4-hydroxycyclohexy1]-2-[(3,3,3-trifluoropropyl)amino]pyrrolo[2,3-d]pyrimidin-5-yl]methyl)piperazin-1-yl]propoxy]propyl)-1,3-benzodiazol-1-yl]piperidine-2,6-dione; formic acid], the Dmax was 20 to 50%.
Regarding `Cn1c(=O)n([C@H]2CCC(=O)NC2=O)c2ccc(CCCOCCCN3CCN(Cc4ccc(-c5cn([C@H]6CC[C@@](C)(O)CC6)c6nc(NCCC(F)(F)F)ncc56)cc4)CC3)cc21` [I-141, 3-[3-methyl-2-oxo-5-[3-(3-[4-[(4-[7-[cis-4-hydroxy-4-methylcyclohexyl]-2-[(3,3,3-trifluoropropyl)amino]pyrrolo[2,3-d]pyrimidin-5-y1]phenyl)methyl]piperazin-1-yl]propoxy)propyl]-1,3-benzodiazol-1-yl]piperidine-2,6-dione], the Dmax was more than 50%.
On to `Cn1c(=O)n([C@H]2CCC(=O)NC2=O)c2ccc(CCCOCCCN3CCN(Cc4ccc(-c5cn([C@H]6CC[C@](C)(O)CC6)c6nc(NCCC(F)(F)F)ncc56)cc4)CC3)cc21` [I-142, 3-[3-methyl-2-oxo-5-[3-(3-[4-[(4-[7-[trans-4-hydroxy-4-methylcyclohexyl]-2-[(3,3,3-trifluoropropyl)amino]pyrrolo[2,3-d]pyrimidin-5-yl]phenyl)methyl]piperazin-1-yl]propoxy)propyl]-1,3-benzodiazol-1-yl]piperidine-2,6-dione], for which the Dmax is more than 50%.
The same measure for `Cn1c(=O)n([C@H]2CCC(=O)NC2=O)c2ccc(CCO[C@H]3C[C@@H](N4CCN(Cc5ccc(-c6cn([C@H]7CC[C@H](O)CC7)c7nc(NCCC(F)(F)F)ncc67)cc5)CC4)C3)cc21` [I-143, 3-[3-methyl-2-oxo-5-[2-(3-[4-[(4-[7-[trans-4-hydroxycyclohexyl]-2-[(3,3,3-trifluoropropyl)amino]pyrrolo[2,3-d]pyrimidin-5-yl]phenyl)methyl]piperazin-1-yl]cyclobutoxy)ethyl]-1,3-benzodiazol-1-yl]piperidine-2,6-dione; formic acid]: more than 50%.
To `Cn1c(=O)n([C@H]2CCC(=O)NC2=O)c2ccc(CCOC3CN(C4CCN(Cc5ccc(-c6cn([C@H]7CC[C@H](O)CC7)c7nc(NCCC(F)(F)F)ncc67)cc5)CC4)C3)cc21` [I-144, 3-(3-methyl-2-oxo-5-[2-[(1-[1-[(4-[7-[trans-4-hydroxycyclohexy1]-2-[(3,3,3-trifluoropropyl)amino]pyrrolo[2,3-d]pyrimidin-5-yl]phenyl)methyl]piperidin-4-yl]azetidin-3-yl)oxy]ethyl]-1,3-benzodiazol-1-yl)piperidine-2,6-dione; formic acid] belongs more than 50%; to `Cn1c(=O)n([C@H]2CCC(=O)NC2=O)c2ccc(CCCC3CCN(C4CCN(Cc5ccc(-c6cn([C@H]7CC[C@H](O)CC7)c7nc(NCCC(F)(F)F)ncc67)cc5)CC4)CC3)cc21` [I-145, 3-[3-methyl-2-oxo-5-(3-[1-[(4-[7-[trans-4-hydroxycyclohexyl]-2-[(3,3,3-trifluoropropyl)amino]pyrrolo[2,3-d]pyrimidin-5-yl]phenyl)methyl]-[1,4-bipiperidin]-4-yl]propyl)-1,3-benzodiazol-1-y1]piperidine-2,6-dione; formic acid], more than 50%; to `Cn1c(=O)n([C@H]2CCC(=O)NC2=O)c2ccc(CCOCCN3CCN(Cc4cccc(-c5cn([C@H]6CC[C@H](O)CC6)c6nc(NCCC(F)(F)F)ncc56)c4)CC3)cc21` [I-146, 3-[3-methyl-2-oxo-5-[2-(2-[4-[(3-[7-[trans-4-hydroxycyclohexy1]-2-[(3,3,3-trifluoropropyl)amino]pyrrolo[2,3-d]pyrimidin-5-yl]phenyl)methyl]piperazin-1-yl]ethoxy)ethyl]-1,3-benzodiazol-1-yl]piperidine-2,6-dione], more than 50%.
The same measure for `Cn1c(=O)n([C@H]2CCC(=O)NC2=O)c2ccc(CCOCCN3CCN(Cc4cn([C@H]5CC[C@H](O)CC5)c5nc(NCCC(F)(F)F)ncc45)CC3)cc21` [I-147, 3-[3-methyl-2-oxo-5-(2-[2-[4-([7-[(1r,4r)-4-hydroxycyclohexyl]-2-[(3,3,3-trifluoropropyl)amino]pyrrolo[2,3-d]pyrimidin-5-y1]methyl)piperazin-1-yl]ethoxy]ethyl)-1,3-benzodiazol-1-yl]piperidine-2,6-dione]: less than 20%; for `Cn1c(=O)n([C@H]2CCC(=O)NC2=O)c2ccc(COCCCN3CCN(Cc4ccc(-c5cn([C@H]6CC[C@H](O)CC6)c6nc(NCCC(F)(F)F)ncc56)cc4)CC3)cc21` [I-149, 3-[3-methyl-2-oxo-5-[(3-[4-[(4-[7-[trans-4-hydroxycyclohexy1]-2-[(3,3,3-trifluoropropyl)amino]pyrrolo[2,3-d]pyrimidin-5-yl]phenyl)methyl]piperazin-1-yl]propoxy)methyl]-1,3-benzodiazol-1-y1]piperidine-2,6-dione; formic acid]: more than 50%; for `Cn1c(=O)n([C@H]2CCC(=O)NC2=O)c2cccc(COCCCN3CCN(Cc4ccc(-c5cn([C@H]6CC[C@H](O)CC6)c6nc(NCCC(F)(F)F)ncc56)cc4)CC3)c21` [I-150, 3-[3-methyl-2-oxo-4-[(3-[4-[(4-[7-[trans-4-hydroxycyclohexyl]-2-[(3,3,3-trifluoropropyl)amino]pyrrolo[2,3-d]pyrimidin-5-yl]phenyl)methyl]piperazin-1-y1]propoxy)methyl]-1,3-benzodiazol-1-yl]piperidine-2,6-dione]: more than 50%.
`Cn1c(=O)n([C@H]2CCC(=O)NC2=O)c2ccc(COCCN3CCN(Cc4ccc(-c5cn([C@H]6CC[C@H](O)CC6)c6nc(NCCC(F)(F)F)ncc56)cc4)CC3)cc21` [I-151, trans-3-[3-methyl-2-oxo-5-[(2-[4-[(4-[7-[4-hydroxycyclohexy1]-2-[(3,3,3-trifluoropropyl)amino]pyrrolo[2,3-d]pyrimidin-5-y1]phenyl)methyl]piperazin-1-yl]ethoxy)methyl]-1,3-benzodiazol-1-yl]piperidine-2,6-dione; formic acid]: the Dmax is more than 50%.
`Cn1c(=O)n([C@H]2CCC(=O)NC2=O)c2cccc(COCCN3CCN(Cc4ccc(-c5cn([C@H]6CC[C@H](O)CC6)c6nc(NCCC(F)(F)F)ncc56)cc4)CC3)c21` [I-152, 3-[3-methyl-2-oxo-4-[(2-[4-[(4-[7-[trans-4-hydroxycyclohexyl]-2-[(3,3,3-trifluoropropyl)amino]pyrrolo[2,3-d]pyrimidin-5-yl]phenyl)methyl]piperazin-1-yl]ethoxy)methyl]-1,3-benzodiazol-1-yl]piperidine-2,6-dione; bis(formic acid)]: the Dmax was more than 50%.

The values above are taken from patent US20260042762A1 (Kymera Therapeutics, Inc., priority 2018, published 2026).
